Reference: patent US8158656B2, “2-indolinone derivatives as multi-target protein kinase inhibitors and histone deacetylase inhibitors” (Shenzhen Chipscreen Biosciences Ltd., priority 2008, dated 2012)

Tests used:
[1] = tested on: Raji; test: Tumor cell proliferation (MTS), Raji; format: cell-based; settings: Homo sapiens, 72 hours
Description: (§1) Measurement of in vivo cell proliferation:
(§2) Tumor cells were trypsinized and plated into 96-well plates at 3,000 per well and incubated in complete medium with 10% FBS for 24 hours. Compounds were added over a final concentration range of 100 μmol/L to 100 nmol/L in 0.1% DMSO and incubated for 72 hours in complete medium. The effects on proliferation were determined by addition of MTS reagent (Promega) according to the instruction, incubation for 2 hours at 37° C. in CO2 incubator, and record the absorbance at 490 nm using an ELISA plate reader.

[2] = tested on: A549; test: Tumor cell proliferation (MTS), A549; format: cell-based; settings: Homo sapiens, A549, 72 hours
Description: as §1, §2

[3] = tested on: Jurkat; test: Tumor cell proliferation (MTS), Jurkat; format: cell-based; settings: Homo sapiens, 72 hours
Description: as §1, §2

[4] = biological target: T1, HDAC3 (Homo sapiens, UniProt O15379); test: GDF11 reporter assay in HeLa cells; format: cell-based; settings: for HDAC3 (GDF11 reporter assay) % Max Resp of CS055 at 3 μM: relative to CS055 at 3 μM; for EC50: 24 hours
T1 construct: endogenous in cells; host or cells: HeLa
Description: HDAC subtype selectivity inhibition assay of tested compounds was carried out by several reporter gene assays experiments. Briefly, HeLa cells were seeded in 96-well plates the day before transfection to give a confluence of 50-80%. Cells were transfected with one of reporter gene plasmid containing a promoter sequence or response element upstream of a luciferase gene construct using FuGene6 transfection reagent according to the manufacturer's instruction (Roche). The promoters or response elements including p21-promoter, gdf11-promoter, MEF-binding element (MEF2), Nur77-promoter were fused upstream to the luciferase gene reporter construct. For normalizing the transfection efficiency, a GFP expression plasmid was cotransfected. Cells were allowed to express protein for 24 hours followed by addition of individual compounds or the vehicle (DMSO). 24 hours later the cells were harvested, and the luciferase assay and GFP assay were performed using corresponding assay kits according to the manufacturer's instructions (Promega).

[5] = tested on: Bel-7402; test: Tumor cell proliferation (MTS), Bel-7402; format: cell-based; settings: Homo sapiens, Bel-7402, 72 hours
Description: as §1, §2

[6] = biological target: VEGFR2 (Homo sapiens, UniProt P35968); test: VEGF receptor kinase ELISA bioassay; format: biochemical; settings: ELISA kinase assay, 200 μM ATP
[7] = tested on: HeLa; test: Tumor cell proliferation (MTS), HeLa; format: cell-based; settings: Homo sapiens, 72 hours
Description: as §1, §2

[8] = tested on: Mo7e cells (SCF dependent); test: c-Kit ligand (SCF) dependent cell proliferation; format: cell-based; settings: SCF 50 ng/ml, 72 hours, MTS
Description: SCF dependent cell proliferation:
Mo7e cells (SCF dependent) were plated into 96-well plates at 15000 per well and incubated in 1640 medium with 10% FBS and SCF (50 ng/ml) for 24 hours. Compounds were added and incubated for 72 hours at 37° C. in CO2 incubator. The effects on proliferation were determined by addition of MTS reagent (Promega) according to the instruction, incubation for 2 hours at 37° C. in CO2 incubator, and record the absorbance at 490 nm using an ELISA plate reader.

[9] = biological target: T2, c-Kit (Homo sapiens, UniProt P10721); test: c-KIT kinase ELISA bioassay; format: biochemical; settings: ELISA kinase assay, 20 μM ATP
T2 construct: purchased Cell Signaling
Description: This assay is used to measure in vitro kinase activity of c-KIT in an ELISA assay.
• 1. Streptavidin coated, 96-well, white plate • 2. Phospho-Tyrosine Monoclonal Antibody (P-Tyr-100) (Cell Signaling) • 3. HRP-labeled anti-mouse IgG (Upstate) • 4. HTScan™ Tyrosine Kinase Buffer (4×) • 5. DTT (1000×. 1.25 M) • 6. ATP (10 mM) • 7. KDR (Tyr996) Biotinylated Peptide Substrate (Cell Signaling) • 8. c-KIT Kinase (recombinant, human) (Cell Signaling) • 9. Wash Buffer: 1× PBS, 0.05% Tween-20 (PBS/T) • 10. Bovine Serum Albumin (BSA) • 11. Stop Buffer: 50 mM EDTA pH 8 • 12. Enhanced chemiluminescence (ECL) (Amersham) Procedure for performing the assay in 96-well plate: • 1. Add 10 μl 10 mM ATP to 1.25 ml 6 μM substrate peptide. Dilute the mixture with dH20 to 2.5 ml to make 2× ATP/substrate cocktail ([ATP]=40 μM, [substrate]=3 μm). • 2. Immediately transfer enzyme from −80° C. to ice. Allow enzyme to thaw on ice. • 3. Microcentrifuge briefly at 4° C. to bring liquid to the bottom of the vial. Return immediately to ice. • 4. Add 10 μl of DTT (1.25 M) to 2.5 ml of 4× HTScan™ Tyrosine Kinase Buffer (240 mM HEPES pH 7.5, 20 mM MgCl2, 20 mM MnCl2, 12 μM Na3VO4) to make DTT/Kinase buffer. • 5. Transfer 1.25 ml of DTT/Kinase buffer to enzyme tube to make 4× reaction cocktail ([enzyme]=4 ng/μL in 4× reaction cocktail). • 6. Incubate 12.5 μl of the 4× reaction cocktail with 12.5 μl/well of prediluted compound of interest (usually around 10 μM) for 5 minutes at room temperature. • 7. Add 25 μl of 2× ATP/substrate cocktail to 25 μl/well preincubated reaction cocktail/compound. Final Assay Conditions for a 50 μl Reaction: • 60 mM HEPES pH 7.5 • 5 mM MgCl2 • 5 mM MnCl2 • 3 μM Na3VO4 • 1.25 mM DTT • 20 μM ATP • 1.5 μM peptide • 100 ng c-KIT Kinase • 8. Incubate reaction plate at room temperature for 30 minutes. • 9. Add 50 μl/well Stop Buffer (50 mM EDTA, pH 8) to stop the reaction. • 10. Transfer 25 μl of each reaction and 75 μl dH2O/well to a 96-well streptavidincoated plate and incubate at room temperature for 60 minutes. • 11. Wash three times with 200 μl/well PBS/T • 12. Dilute primary antibody, Phospho-Tyrosine Monoclonal Antibody (P-Tyr-100), 1:1000 in PBS/T with 1% BSA. Add 100 μl/well of primary antibody. • 13. Incubate at room temperature for 60 minutes. • 14. Wash three times with 200 μl/well PBS/T • 15. Dilute HRP labeled anti-mouse IgG 1:500 in PBS/T with 1% BSA. Add 100 μl/well diluted antibody. • 16. Incubate at room temperature for 30 minutes. • 17. Wash five times with 200 μl/well PBS/T. • 18. Add 100 μl/well ECL Solution. • 19. Detect luminescence with appropriate Plate Reader. Flt3 Bioassay

[10] = tested on: Ramos; test: Tumor cell proliferation (MTS), Ramos; format: cell-based; settings: Homo sapiens, 72 hours
Description: as §1, §2

Chain of VEGFR2 (P35968 807-1356): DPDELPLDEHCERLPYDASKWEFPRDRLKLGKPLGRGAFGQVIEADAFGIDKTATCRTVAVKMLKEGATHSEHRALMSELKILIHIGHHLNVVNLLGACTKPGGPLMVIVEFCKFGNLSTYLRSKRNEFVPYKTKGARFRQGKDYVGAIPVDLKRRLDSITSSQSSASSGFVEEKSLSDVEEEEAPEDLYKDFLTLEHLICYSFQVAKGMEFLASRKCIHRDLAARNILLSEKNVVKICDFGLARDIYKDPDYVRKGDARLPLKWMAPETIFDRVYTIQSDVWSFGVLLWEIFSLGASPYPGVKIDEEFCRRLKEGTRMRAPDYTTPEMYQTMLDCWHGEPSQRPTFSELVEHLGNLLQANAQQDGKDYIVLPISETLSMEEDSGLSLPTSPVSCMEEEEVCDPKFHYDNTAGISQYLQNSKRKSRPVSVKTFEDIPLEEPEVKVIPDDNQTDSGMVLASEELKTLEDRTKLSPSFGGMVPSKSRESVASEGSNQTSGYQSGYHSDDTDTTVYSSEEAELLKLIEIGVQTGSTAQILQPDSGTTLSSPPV
T2 sequence (P10721 26-976): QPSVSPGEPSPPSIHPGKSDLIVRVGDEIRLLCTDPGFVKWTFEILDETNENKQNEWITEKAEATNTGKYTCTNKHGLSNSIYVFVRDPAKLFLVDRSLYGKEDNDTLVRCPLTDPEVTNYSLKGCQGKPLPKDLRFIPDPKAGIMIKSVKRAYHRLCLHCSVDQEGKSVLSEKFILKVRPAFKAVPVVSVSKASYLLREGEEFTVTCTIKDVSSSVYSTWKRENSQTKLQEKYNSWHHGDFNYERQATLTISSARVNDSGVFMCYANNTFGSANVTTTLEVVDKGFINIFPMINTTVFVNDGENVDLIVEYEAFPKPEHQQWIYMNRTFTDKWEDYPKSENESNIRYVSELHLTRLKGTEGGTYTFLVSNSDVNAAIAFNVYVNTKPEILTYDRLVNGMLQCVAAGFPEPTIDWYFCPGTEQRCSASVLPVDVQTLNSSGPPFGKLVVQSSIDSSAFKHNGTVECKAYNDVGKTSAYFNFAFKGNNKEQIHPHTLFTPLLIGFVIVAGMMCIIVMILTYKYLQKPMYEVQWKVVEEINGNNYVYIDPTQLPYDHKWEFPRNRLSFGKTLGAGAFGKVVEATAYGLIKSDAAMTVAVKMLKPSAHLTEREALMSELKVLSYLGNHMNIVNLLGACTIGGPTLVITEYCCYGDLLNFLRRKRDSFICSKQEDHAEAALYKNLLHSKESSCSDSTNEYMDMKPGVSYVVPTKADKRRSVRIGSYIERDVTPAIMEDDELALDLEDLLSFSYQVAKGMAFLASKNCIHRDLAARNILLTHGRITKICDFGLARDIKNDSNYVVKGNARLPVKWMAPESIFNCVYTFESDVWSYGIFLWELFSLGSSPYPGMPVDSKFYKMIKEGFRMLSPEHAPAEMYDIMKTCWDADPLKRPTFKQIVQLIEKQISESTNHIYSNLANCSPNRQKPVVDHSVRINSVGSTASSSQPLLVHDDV
T1 sequence (O15379 whole entry): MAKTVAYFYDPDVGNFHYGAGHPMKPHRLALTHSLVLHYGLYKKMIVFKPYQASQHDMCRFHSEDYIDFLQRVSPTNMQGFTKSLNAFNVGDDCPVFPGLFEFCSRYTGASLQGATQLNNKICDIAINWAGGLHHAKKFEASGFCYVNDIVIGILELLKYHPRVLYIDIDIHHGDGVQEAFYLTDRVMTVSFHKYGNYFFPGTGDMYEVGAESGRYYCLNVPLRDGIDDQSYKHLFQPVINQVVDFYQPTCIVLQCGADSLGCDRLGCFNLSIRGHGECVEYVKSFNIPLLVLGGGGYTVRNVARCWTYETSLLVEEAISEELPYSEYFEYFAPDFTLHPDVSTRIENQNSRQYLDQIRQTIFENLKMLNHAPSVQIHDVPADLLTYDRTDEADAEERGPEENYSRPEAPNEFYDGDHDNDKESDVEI
T1 sequence (Q9Y618 whole entry partner): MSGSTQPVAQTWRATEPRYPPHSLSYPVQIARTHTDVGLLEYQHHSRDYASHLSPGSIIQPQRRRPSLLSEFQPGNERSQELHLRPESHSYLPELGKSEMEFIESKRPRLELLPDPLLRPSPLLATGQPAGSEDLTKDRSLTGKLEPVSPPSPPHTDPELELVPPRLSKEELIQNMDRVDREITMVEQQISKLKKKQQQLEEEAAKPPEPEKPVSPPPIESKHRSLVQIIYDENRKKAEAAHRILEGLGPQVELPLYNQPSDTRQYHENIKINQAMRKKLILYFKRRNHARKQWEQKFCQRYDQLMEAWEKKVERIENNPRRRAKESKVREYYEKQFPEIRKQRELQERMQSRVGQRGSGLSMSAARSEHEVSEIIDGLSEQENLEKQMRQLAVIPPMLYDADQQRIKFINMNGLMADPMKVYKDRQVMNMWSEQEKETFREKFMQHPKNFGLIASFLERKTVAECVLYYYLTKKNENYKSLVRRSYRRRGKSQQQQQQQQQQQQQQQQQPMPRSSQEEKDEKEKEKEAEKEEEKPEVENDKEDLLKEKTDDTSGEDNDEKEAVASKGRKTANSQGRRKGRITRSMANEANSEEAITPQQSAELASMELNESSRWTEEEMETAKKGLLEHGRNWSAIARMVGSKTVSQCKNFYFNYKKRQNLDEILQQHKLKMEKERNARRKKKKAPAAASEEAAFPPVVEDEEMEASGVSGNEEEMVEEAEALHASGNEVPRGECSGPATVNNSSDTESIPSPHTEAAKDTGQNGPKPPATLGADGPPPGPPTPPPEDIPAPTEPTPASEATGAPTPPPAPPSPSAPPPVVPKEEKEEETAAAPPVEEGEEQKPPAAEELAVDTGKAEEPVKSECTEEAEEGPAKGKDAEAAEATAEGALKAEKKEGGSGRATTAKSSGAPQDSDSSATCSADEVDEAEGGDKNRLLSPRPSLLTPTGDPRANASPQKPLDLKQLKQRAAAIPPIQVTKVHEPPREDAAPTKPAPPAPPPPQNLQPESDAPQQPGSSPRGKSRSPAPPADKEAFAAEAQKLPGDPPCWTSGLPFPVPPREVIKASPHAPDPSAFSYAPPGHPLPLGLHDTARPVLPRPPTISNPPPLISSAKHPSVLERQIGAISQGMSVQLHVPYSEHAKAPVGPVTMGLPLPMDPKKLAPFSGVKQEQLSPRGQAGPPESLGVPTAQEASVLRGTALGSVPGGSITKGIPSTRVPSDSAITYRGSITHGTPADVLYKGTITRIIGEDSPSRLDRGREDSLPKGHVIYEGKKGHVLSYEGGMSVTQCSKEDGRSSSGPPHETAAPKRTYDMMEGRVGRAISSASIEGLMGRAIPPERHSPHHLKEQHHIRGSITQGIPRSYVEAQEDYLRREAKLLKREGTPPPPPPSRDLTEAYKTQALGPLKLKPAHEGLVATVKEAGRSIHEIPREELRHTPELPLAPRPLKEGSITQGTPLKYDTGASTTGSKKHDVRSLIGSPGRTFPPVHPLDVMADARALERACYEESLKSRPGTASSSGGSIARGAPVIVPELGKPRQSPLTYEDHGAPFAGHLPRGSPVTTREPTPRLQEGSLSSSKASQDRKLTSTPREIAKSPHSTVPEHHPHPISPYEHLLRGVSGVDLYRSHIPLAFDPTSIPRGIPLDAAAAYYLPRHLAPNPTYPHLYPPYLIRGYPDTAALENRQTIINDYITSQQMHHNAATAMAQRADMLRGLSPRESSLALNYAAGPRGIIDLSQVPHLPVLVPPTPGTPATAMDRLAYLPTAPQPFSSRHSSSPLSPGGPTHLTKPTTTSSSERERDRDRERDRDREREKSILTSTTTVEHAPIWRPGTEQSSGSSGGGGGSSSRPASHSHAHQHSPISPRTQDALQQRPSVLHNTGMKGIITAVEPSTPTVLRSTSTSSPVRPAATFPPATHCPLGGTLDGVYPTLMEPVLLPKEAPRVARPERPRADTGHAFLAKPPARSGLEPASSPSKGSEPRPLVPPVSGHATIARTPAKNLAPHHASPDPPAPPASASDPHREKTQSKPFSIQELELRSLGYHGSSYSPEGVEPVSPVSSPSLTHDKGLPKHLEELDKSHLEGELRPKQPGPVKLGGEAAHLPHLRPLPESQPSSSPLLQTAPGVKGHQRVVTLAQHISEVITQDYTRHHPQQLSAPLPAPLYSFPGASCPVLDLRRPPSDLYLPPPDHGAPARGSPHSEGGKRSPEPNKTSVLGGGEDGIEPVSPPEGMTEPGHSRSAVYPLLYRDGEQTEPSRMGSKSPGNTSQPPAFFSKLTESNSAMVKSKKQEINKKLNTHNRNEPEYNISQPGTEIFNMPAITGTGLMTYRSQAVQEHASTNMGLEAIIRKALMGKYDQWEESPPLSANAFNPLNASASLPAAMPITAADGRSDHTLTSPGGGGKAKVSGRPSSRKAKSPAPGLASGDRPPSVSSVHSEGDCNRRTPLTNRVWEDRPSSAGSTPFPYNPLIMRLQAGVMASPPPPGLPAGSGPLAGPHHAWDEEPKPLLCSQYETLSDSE

| GI50 [1] [µM] | GI50 [2] [µM] | GI50 [3] [µM] | HDAC3 (GDF11 reporter assay) % Max Resp of CS055 at 3 μM [4] [%] | GI50 [5] [µM] | IC50 [6] [nM] | GI50 [7] [µM] | IC50 [9] [nM] | GI50 [10] [µM] | EC50 [4] [µM] | Structure (SMILES) | GI50 [8] [nM] |
| --- | --- | --- | --- | --- | --- | --- | --- | --- | --- | --- | --- |
| > 60 | > 60 | > 60 | 2.0 | > 60 | 324 | > 60 | > 1000 | > 60 |  | Cc1[nH]c(/C=N/N=C2\C(=O)Nc3ccc(F)cc32)c(C)c1C(=O)NCCNc1ccc(C(=O)Nc2ccc(F)cc2N)cn1 [Example 14, N-(2-amino-4-fluorophenyl)-6-(2-(2-(((5-fluoro-2-oxoindolin-3-ylidene)-hydrazono)methyl)-3,5-dimethyl-1H-pyrrole-4-carboxamido)ethylamino)nicotinamide] | > 1000 |
| > 60 | > 60 | > 60 | 6.3 | > 60 | 634 | > 60 | > 1000 | > 60 |  | Cc1[nH]c(/C=N/N=C2\C(=O)Nc3ccc(F)cc32)c(C)c1C(=O)NCCCNc1ccc(C(=O)Nc2ccccc2N)cn1 [Example 7, N-(2-aminophenyl)-6-(3-(2-(((5-fluoro-2-oxoindolin-3-ylidene)hydrazono)-methyl)-3,5-dimethyl-1H-pyrrole-4-carboxamido)propylamino)nicotinamide] | > 1000 |
| 3.45 | > 60 | > 60 | 75.6 | > 60 | 45 | > 60 | 76 | > 60 | 1 | Cc1[nH]c(/C=C2\C(=O)Nc3ccc(F)cc32)c(C)c1C(=O)NCCCNc1ccc(C(=O)Nc2ccccc2N)cn1 [Example 6, (Z)-N-(2-aminophenyl)-6-(3-(2-((5-fluoro-2-oxoindolin-3-ylidene)methyl)-3,5-dimethyl-1H-pyrrole-4-carboxamido)propylamino)nicotinamide] | 46 |
| 3.45 | > 60 | > 60 | 106.2 | > 60 | 11 | > 60 | 157 | > 60 | 1.9 | Cc1[nH]c(/C=C2\C(=O)Nc3ccc(F)cc32)c(C)c1C(=O)NCCNc1ccc(C(=O)Nc2ccccc2N)cn1 [Example 3, (Z)-N-(2-aminophenyl)-6-(2-(2-((5-fluoro-2-oxoindolin-3-ylidene)methyl)-3,5-dimethyl-1H-pyrrole-4-carboxamido)ethylamino)nicotinamide] | 126 |
| > 60 | > 60 | > 60 | 4.1 | > 60 | > 1000 | > 60 | > 1000 | > 60 |  | Cc1[nH]c(/C=N/N=C2\C(=O)Nc3ccc(F)cc32)c(C)c1C(=O)NCCCCNc1ccc(C(=O)Nc2ccc(F)cc2N)cn1 [Example 20, N-(2-amino-4-fluorophenyl)-6-(4-(2-(((5-fluoro-2-oxoindolin-3-ylidene)-hydrazono)methyl)-3,5-dimethyl-1H-pyrrole-4-carboxamido)butylamino)nicotinamide] | > 1000 |
| > 60 | > 60 | > 60 | 81.4 | > 60 | 35 | > 60 | 23 | > 60 | 15.5 | Cc1[nH]c(/C=C2\C(=O)Nc3ccc(F)cc32)c(C)c1C(=O)NCCCCNc1ccc(C(=O)Nc2ccccc2N)cn1 [Example 9, (Z)-N-(2-aminophenyl)-6-(4-(2-((5-fluoro-2-oxoindolin-3-ylidene)methyl)-3,5-dimethyl-1H-pyrrole-4-carboxamido)butylamino)nicotinamide] | 32 |
| > 60 | > 60 | > 60 | 3.8 | > 60 | > 1000 | > 60 | > 1000 | > 60 |  | Cc1[nH]c(/C=N/N=C2\C(=O)Nc3ccc(F)cc32)c(C)c1C(=O)NCCCNc1ccc(C(=O)Nc2ccc(F)cc2N)cn1 [Example 17, N-(2-amino-4-fluorophenyl)-6-(3-(2-(((5-fluoro-2-oxoindolin-3-ylidene)-hydrazono)methyl)-3,5-dimethyl-1H-pyrrole-4-carboxamido)propylamino)nicotinamide] | > 1000 |
| > 60 | > 60 | > 60 | 1.8 | > 60 | 43 | > 60 | 534 | > 60 |  | Cc1[nH]c(/C=C2\C(=O)Nc3ccc(F)cc32)c(C)c1C(=O)NCCNc1ccc(C(=O)Nc2ccc(F)cc2N)cn1 [Example 13, (Z)-N-(2-amino-4-fluorophenyl)-6-(2-(2-((5-fluoro-2-oxoindolin-3-ylidene)-methyl)-3,5-dimethyl-1H-pyrrole-4-carboxamido)ethylamino)nicotinamide] | 151 |
| > 60 | > 60 | > 60 | 2.0 | > 60 | 157 | > 60 | 65 | > 60 |  | Cc1[nH]c(/C=C2\C(=O)Nc3ccc(F)cc32)c(C)c1C(=O)NCCCCNc1ccc(C(=O)Nc2ccc(F)cc2N)cn1 [Example 19, (Z)-N-(2-amino-4-fluorophenyl)-6-(4-(2-((5-fluoro-2-oxoindolin-3-ylidene)-methyl)-3,5-dimethyl-1H-pyrrole-4-carboxamido)butylamino)nicotinamide] | 42 |
